Tests used:
[1] = target: T1, PI3K-α (PIK3CA) wild-type (WT), p110α/p85α complex (Homo sapiens, UniProt P42336); experiment: PI3K-alpha kinase (PIK3CA) biochemical activity, ADP-Glo, wild-type; conditions: Soy PI lipid substrate
T1 construct: Recombinant, catalytically active human full length PIK3KA Wild-type and H1047R mutant; 6×His (N); purchased EMD Millipore Sigma 14-602M
Procedure, shortened: (§1)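 ADP formation measured by ADP-Glo luminescence after reaction at 27 °C to about 10% ATP turnover, using 20 uM ATP, 50 uM PIP2diC8 or soy PI lipid, HEPES pH 7.4 with MgCl2. Enzyme (1-5 nM WT or H1047R p110α/p85α) and compound preincubated 1 h first; 10-point 1:3 curves fitted four-parameter for IC50.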

[2] = target: T2, PI3K-α (PIK3CA) H1047R mutant, p110α/p85α complex (Homo sapiens, UniProt P42336, H1047R); experiment: PI3K-alpha kinase (PIK3CA) biochemical activity, ADP-Glo, H1047R mutant; conditions: Soy PI lipid substrate
T2 construct: Recombinant, catalytically active human full length PIK3KA Wild-type and H1047R mutant; 6×His (N); purchased EMD Millipore Sigma 14-792M
Procedure, shortened: as §1

T2 sequence (P42336 whole entry H1047R): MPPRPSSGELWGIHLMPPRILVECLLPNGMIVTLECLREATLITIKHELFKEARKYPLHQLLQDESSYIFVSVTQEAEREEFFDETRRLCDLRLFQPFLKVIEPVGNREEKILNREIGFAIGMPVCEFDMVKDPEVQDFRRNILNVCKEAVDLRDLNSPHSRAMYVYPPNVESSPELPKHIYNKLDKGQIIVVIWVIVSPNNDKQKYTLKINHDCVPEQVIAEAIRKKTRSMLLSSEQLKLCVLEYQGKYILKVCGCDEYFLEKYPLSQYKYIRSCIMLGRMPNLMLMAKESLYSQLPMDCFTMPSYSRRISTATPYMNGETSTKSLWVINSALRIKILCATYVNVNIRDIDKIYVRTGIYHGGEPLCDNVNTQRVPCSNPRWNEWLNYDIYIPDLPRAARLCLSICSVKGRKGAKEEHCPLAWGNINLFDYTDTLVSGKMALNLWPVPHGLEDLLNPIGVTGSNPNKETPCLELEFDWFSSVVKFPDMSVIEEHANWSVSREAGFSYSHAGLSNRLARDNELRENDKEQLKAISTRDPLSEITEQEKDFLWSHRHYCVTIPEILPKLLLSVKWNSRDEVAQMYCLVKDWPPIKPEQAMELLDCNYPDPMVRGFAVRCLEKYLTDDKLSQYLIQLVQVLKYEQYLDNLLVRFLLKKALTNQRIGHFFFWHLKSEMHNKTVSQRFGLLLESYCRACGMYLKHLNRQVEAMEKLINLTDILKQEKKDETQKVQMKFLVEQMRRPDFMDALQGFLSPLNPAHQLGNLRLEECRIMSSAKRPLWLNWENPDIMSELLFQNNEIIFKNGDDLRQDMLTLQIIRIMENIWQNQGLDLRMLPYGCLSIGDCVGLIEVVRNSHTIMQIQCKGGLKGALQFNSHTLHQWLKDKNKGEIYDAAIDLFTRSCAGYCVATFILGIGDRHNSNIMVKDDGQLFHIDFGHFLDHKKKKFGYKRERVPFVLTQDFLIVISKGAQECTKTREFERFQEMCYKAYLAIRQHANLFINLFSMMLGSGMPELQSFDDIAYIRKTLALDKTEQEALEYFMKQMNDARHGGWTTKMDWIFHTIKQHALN
T2 sequence (P27986 whole entry partner): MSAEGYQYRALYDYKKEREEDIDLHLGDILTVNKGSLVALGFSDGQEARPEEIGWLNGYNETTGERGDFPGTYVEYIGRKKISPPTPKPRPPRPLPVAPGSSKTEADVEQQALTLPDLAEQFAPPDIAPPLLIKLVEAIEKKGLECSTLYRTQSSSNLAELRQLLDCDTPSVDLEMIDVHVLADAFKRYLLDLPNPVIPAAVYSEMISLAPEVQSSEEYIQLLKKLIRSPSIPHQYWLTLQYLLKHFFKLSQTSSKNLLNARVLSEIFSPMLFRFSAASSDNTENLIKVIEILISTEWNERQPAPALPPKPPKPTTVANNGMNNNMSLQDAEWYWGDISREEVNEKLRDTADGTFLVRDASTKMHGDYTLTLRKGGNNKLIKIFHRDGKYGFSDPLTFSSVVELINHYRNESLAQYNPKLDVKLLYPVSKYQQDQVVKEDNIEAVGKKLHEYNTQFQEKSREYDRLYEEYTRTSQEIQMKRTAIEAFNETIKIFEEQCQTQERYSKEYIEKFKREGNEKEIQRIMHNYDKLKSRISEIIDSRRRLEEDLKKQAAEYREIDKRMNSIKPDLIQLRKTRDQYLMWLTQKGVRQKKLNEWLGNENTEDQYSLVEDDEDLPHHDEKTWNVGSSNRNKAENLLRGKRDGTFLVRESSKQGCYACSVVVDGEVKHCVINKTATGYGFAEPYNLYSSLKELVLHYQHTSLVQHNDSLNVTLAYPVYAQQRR

SMILES | IC50 [1] [µM] | IC50 [2] [µM]
Cc1cc(C(C)Nc2ccccc2C(=O)O)c2oc(-c3ccn4cnnc4c3)cc(=O)c2c1 (single isomer, unassigned) [Example 161, 2-[1-[6-Methyl-4-oxo-2-([1,2,4]triazolo[4,3-a]pyridin-7-yl)chromen-8-yl]ethylamino]benzoic acid] | > 10 | 0.5 to 1
Cc1cc(C(C)Nc2ccccc2C(=O)O)c2oc(-c3cc4ccncc4o3)cc(=O)c2c1 (single isomer, unassigned) [Example 39, 2-[1-(2-Furo[2,3-c]pyridin-2-yl-6-methyl-4-oxo-chromen-8-yl)ethylamino]benzoic acid] | 1 to 5 | < 0.5
Cc1cc(C(C)Nc2ccccc2C(=O)O)c2oc(-c3ccn4c(-c5cccnc5)c(C)nc4c3)cc(=O)c2c1 (single isomer, unassigned) [Example 112, 2-[1-[6-Methyl-2-[2-methyl-3-(3-pyridyl)imidazo[1,2-a]pyridin-7-yl]-4-oxo-chromen-8-yl]ethylamino]benzoic acid] | 1 to 5 | 0.5 to 1
Cc1cc(C(C)Nc2ccccc2C(=O)O)c2oc(-c3ccn4c(C)nnc4c3)cc(=O)c2c1 (single isomer, unassigned) [Example 77, 2-[1-[6-Methyl-2-(3-methyl-[1,2,4]triazolo[4,3-a]pyridin-7-yl)-4-oxo-chromen-8-yl]ethylamino]benzoic acid] | 5 to 10 | < 0.5
Cc1cc(C(C)Nc2ccccc2C(=O)O)c2oc(-c3ccc4nccn4n3)cc(=O)c2c1 (stereo not drawn) [Example 15, 2-[1-(2-Imidazo[1,2-b]pyridazin-6-yl-6-methyl-4-oxo-chromen-8-yl)ethylamino]benzoic acid] | 1 to 5 | < 0.5
Cc1cn2cc(-c3oc4c(C(C)Nc5ccccc5C(=O)O)cc(F)cc4c(=O)c3C)ccc2n1 (single isomer, unassigned) [Example 124, 2-[1-[6-Fluoro-3-methyl-2-(2-methylimidazo[1,2-a]pyridin-6-yl)-4-oxo-chromen-8-yl]ethylamino]benzoic acid] | 0.5 to 1 | < 0.5
Cc1cc(C(C)Nc2ccccc2C(=O)O)c2oc(-c3c4ccccc4nn3C)cc(=O)c2c1 (single isomer, unassigned) [Example 119, 2-[1-[6-Methyl-2-(2-methylindazol-3-yl)-4-oxo-chromen-8-yl]ethylamino]benzoic acid] | 1 to 5 | 1 to 5
Cc1cc(C(C)Nc2ccccc2C(=O)O)c2oc(-c3ccc4nc(C)cn4n3)c(C)c(=O)c2c1 (single isomer, unassigned) [Example 142, 2-[1-[3,6-Dimethyl-2-(2-methylimidazo[1,2-b]pyridazin-6-yl)-4-oxo-chromen-8-yl]ethylamino]benzoic acid] | 1 to 5 | < 0.5
Cc1cc(C(C)Nc2ccccc2C(=O)O)c2oc(-c3ccc4cc(C)[nH]c4n3)cc(=O)c2c1 (single isomer, unassigned) [Example 20, 2-[1-[6-Methyl-2-(2-methyl-1H-pyrrolo[2,3-b]pyridin-6-yl)-4-oxo-chromen-8-yl]ethylamino]benzoic acid] | 1 to 5 | < 0.5
Cc1cc(C(C)Nc2ccccc2C(=O)O)c2oc(-c3ccc4cc(C)nn4c3)cc(=O)c2c1 (single isomer, unassigned) [Example 134, 2-[1-[6-Methyl-2-(2-methylpyrazolo[1,5-a]pyridin-6-yl)-4-oxo-chromen-8-yl]ethylamino]benzoic acid] | 1 to 5 | < 0.5
CC(Nc1cccnc1C(=O)O)c1cc(C(F)(F)F)cc2c(=O)cc(-c3cc4ccccc4[nH]3)oc12 (stereo not drawn) [Example 185, 3-[1-[2-(1H-Indol-2-yl)-4-oxo-6-(trifluoromethyl)chromen-8-yl]ethylamino]pyridine-2-carboxylic acid] | > 10 | > 10
Cc1cc(C(C)Nc2ccccc2C(=O)O)c2oc(-c3cc4ncccc4[nH]3)cc(=O)c2c1 (single isomer, unassigned) [Example 147, 2-[1-[6-Methyl-4-oxo-2-(1H-pyrrolo[3,2-b]pyridin-2-yl)chromen-8-yl]ethylamino]benzoic acid] | 1 to 5 | < 0.5

— patent US11878970B2, “Allosteric chromenone inhibitors of phosphoinositide 3-kinase (PI3K) for the treatment of disease” (Petra Pharma Corporation, priority 2021, dated 2024)
